Some test systems named below: OVCAR-4; U-251; HT-29; 786-0; HL-60; HOP-62; SR; UACC-257; HCT-15; MDA-MB-231; SK-MEL-28; SF-295; IGROV-1; SNB-19; UACC-62; SN12C; OVCAR-5; OVCAR-3; Malme-3M; A549.
Common to all, as to test: inhibition of tumour cell growth, NCI panel, 48 h

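In this assay, cells in 96-well plates receive the compound at five concentrations for 48 hours. Endpoints are linearly interpolated between the surrounding concentrations. At the GI50, growth is halved.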 Activity calls are given as the source filed them. Cut-off read from the data, not from the text of the source: active = GI50 up to about 1.1 µM and inactive = higher. Bounds are passed on as bounds.

Regarding `O=C(NC1CCCCC1)c1cc2ccccc2cc1O`, the GI50 in the assay on OVCAR-4 was 20.3 µM (inactive); with U-251, 44.2 µM (inactive); in the assay with HT-29 it was 20.4 µM (inactive); in the assay on 786-0, 26.3 µM (inactive); in the assay on HL-60, 22.6 µM (inactive); in the assay with HOP-62 it was 35.7 µM (inactive). Further, the GI50 in the assay on SR was 38.7 µM (inactive); with UACC-257 it was 36.6 µM (inactive); with HCT-15, 26.4 µM; in the assay with MDA-MB-231, 61 µM (inactive); with SK-MEL-28, 49.3 µM (inactive); with SF-295 it was 29.9 µM (inactive). Moreover, the GI50 in the assay on IGROV-1 is 35.5 µM (inactive); in the assay on SNB-19, 31.1 µM (inactive); in the assay with UACC-62, 27 µM (inactive).

Take `CC1CN=C(NCc2ccccc2)S1` (stereo unspecified): the GI50 is > 100 µM (inactive) in the assay with U-251; > 100 µM (inactive) in the assay with HT-29; > 100 µM (inactive) in the assay with SN12C; 65 µM (inactive) in the assay on HL-60; > 100 µM (inactive) in the assay with OVCAR-5; > 100 µM (inactive) with HOP-62. For the same compound, the GI50 with SR is 29 µM (inactive); in the assay on UACC-257 it was > 100 µM (inactive); with HCT-15 it was above 100 µM; in the assay with OVCAR-3, > 100 µM (inactive); with MDA-MB-231, > 100 µM (inactive); in the assay with SK-MEL-28, > 100 µM (inactive). Also, the GI50 with Malme-3M, with SNB-19 and in the assay on UACC-62 was > 100 µM (inactive) throughout.

Regarding `CN1C(NN)=NS(=O)(=O)c2ccccc21`, the GI50 in the assay on OVCAR-4, in the assay on U-251, in the assay with HT-29, with 786-0, in the assay on A549 and in the assay on SN12C was > 100 µM (inactive) in each case. Also, the GI50 in the assay on HL-60 is > 100 µM (inactive); with OVCAR-5, > 100 µM (inactive); in the assay with HOP-62 it was > 100 µM (inactive); in the assay with SR, 8.51 µM (inactive); in the assay with UACC-257 it was > 100 µM (inactive); in the assay with HCT-15, above 100 µM. Moreover, the GI50 with OVCAR-3, in the assay on MDA-MB-231, in the assay on SK-MEL-28, in the assay on SF-295, in the assay with IGROV-1 and in the assay with SNB-19 was > 100 µM (inactive) each time. For the same compound, the GI50 in the assay with UACC-62 was > 100 µM (inactive).

As to `COc1cc(/C=C2\N=C(c3ccccc3)N(/N=C/c3cc4cc(C)ccc4nc3Cl)C2=O)cc(OC)c1OC`, the GI50 in the assay on OVCAR-4 was 37.5 µM (inactive); with U-251, 18.9 µM (inactive); in the assay with HT-29 it was 38.4 µM (inactive); in the assay on 786-0, 60.4 µM (inactive); in the assay with A549, 36.4 µM (inactive); with SN12C, 61.8 µM (inactive). Moreover, the GI50 was 10.5 µM (inactive) with HL-60; > 100 µM (inactive) with OVCAR-5; 58.7 µM (inactive) with HOP-62; 19.4 µM (inactive) in the assay with SR; 46.5 µM (inactive) in the assay on UACC-257; 32.4 µM in the assay with HCT-15. Also, the GI50 in the assay on OVCAR-3 is 26.5 µM (inactive); with MDA-MB-231, 23.1 µM (inactive); in the assay on SK-MEL-28, 91.6 µM (inactive); with SF-295, 44.2 µM (inactive); with IGROV-1 it was 33.3 µM (inactive); in the assay on SNB-19 it was 64.7 µM (inactive). In addition, in the assay with UACC-62, the GI50 was 32.1 µM (inactive).

With `O=C(O)c1nc2ccccc2nc1Nc1ccc(Cl)c(Cl)c1`, the GI50 in the assay with U-251 was 22.1 µM (inactive); with 786-0, 20.2 µM (inactive); with A549, 24.1 µM (inactive); in the assay on SN12C, 20.1 µM (inactive); in the assay on HL-60, 25.8 µM (inactive); in the assay with OVCAR-5, 39.6 µM (inactive). Besides, the GI50 in the assay on HOP-62 is 16.1 µM (inactive); with SR it was 47.9 µM (inactive); in the assay with UACC-257, 31.8 µM (inactive); in the assay on HCT-15 it was 13.1 µM; with OVCAR-3 it was 11.5 µM (inactive); in the assay with MDA-MB-231, 31.3 µM (inactive). Besides, the GI50 with SK-MEL-28 was 13 µM (inactive); in the assay with Malme-3M, 18.4 µM (inactive); in the assay on SF-295, 17.3 µM (inactive); with IGROV-1 it was 20.5 µM (inactive); in the assay with SNB-19 it was 24.9 µM (inactive).

On to `O=C(O)c1nc(-c2ccccc2)ncc1-c1nnnn1-c1ccccc1`, for which the GI50 with U-251, with HT-29, in the assay on 786-0, in the assay with A549, in the assay with SN12C and in the assay on HL-60 was > 100 µM (inactive) throughout. The GI50 with OVCAR-5 is > 100 µM (inactive); in the assay on HOP-62, > 100 µM (inactive); with SR it was > 100 µM (inactive); in the assay on UACC-257 it was > 100 µM (inactive); with HCT-15, above 100 µM; with OVCAR-3, > 100 µM (inactive). Besides, the GI50 in the assay on MDA-MB-231, with SK-MEL-28, with Malme-3M, with SF-295, in the assay with IGROV-1 and in the assay on SNB-19 was > 100 µM (inactive) throughout. Further, the GI50 in the assay on UACC-62 is > 100 µM (inactive).

For `COc1ccc(S(=O)(=O)n2c3c(c4ccccc42)[C@@H]2[C@@H](CCCN2C(=O)C[S+]([O-])c2ccc(C)cc2)[C@H](Cl)C3)cc1` (stereo partly specified), the GI50 with U-251 was > 100 µM (inactive); in the assay with HT-29, > 100 µM (inactive); with 786-0, > 100 µM (inactive); in the assay with A549, > 100 µM (inactive); in the assay on SN12C, > 100 µM (inactive); with HL-60 it was 99.8 µM (inactive). In addition, the GI50 with OVCAR-5 was > 100 µM (inactive); in the assay on HOP-62 it was > 100 µM (inactive); in the assay on SR, > 100 µM (inactive); in the assay on UACC-257, > 100 µM (inactive); in the assay on HCT-15, above 100 µM; with OVCAR-3, > 100 µM (inactive). Further, the GI50 is > 100 µM (inactive) in the assay with MDA-MB-231; > 100 µM (inactive) in the assay on SK-MEL-28; > 100 µM (inactive) with Malme-3M; > 100 µM (inactive) in the assay with SF-295; 1.51 µM (inactive) in the assay on IGROV-1; > 100 µM (inactive) in the assay with SNB-19. Also, the GI50 with UACC-62 was > 100 µM (inactive).

On to `COc1cc2c(cc1OC)CC(N=[N+]=[N-])c1cc(OC)c(OC)cc1/C=C\2` (stereo unspecified), for which the GI50 was 99.3 µM (inactive) in the assay with OVCAR-4; 51.2 µM (inactive) in the assay with U-251; 44.5 µM (inactive) in the assay on HT-29; 34.1 µM (inactive) in the assay on 786-0; 38.8 µM (inactive) in the assay with A549; 68.5 µM (inactive) with SN12C. In addition, the GI50 in the assay with HL-60 is 10 µM (inactive); in the assay with OVCAR-5 it was > 100 µM (inactive); with HOP-62 it was 77.6 µM (inactive); in the assay on SR, > 100 µM (inactive); in the assay on UACC-257, 46 µM (inactive); in the assay with HCT-15, 40.1 µM. Further, the GI50 in the assay on OVCAR-3 was 53.7 µM (inactive); in the assay with MDA-MB-231, 30.8 µM (inactive); in the assay with SK-MEL-28, 89.1 µM (inactive); in the assay on SF-295, 31.8 µM (inactive); with IGROV-1, 50.9 µM (inactive); with SNB-19 it was 34 µM (inactive). Also, the GI50 in the assay with UACC-62 was 30 µM (inactive).

Consider `Cc1ccc2nc(Cl)c(/C=N/N3C(=O)/C(=C/c4ccc(N(C)C)cc4)N=C3c3ccccc3)cc2c1`, for which the GI50 is 70 µM (inactive) with OVCAR-4; 26 µM (inactive) in the assay on U-251; 63.7 µM (inactive) in the assay on HT-29; > 100 µM (inactive) in the assay with 786-0; 37.8 µM (inactive) in the assay on A549; 80.7 µM (inactive) with SN12C. Besides, the GI50 in the assay with HL-60 was 32.4 µM (inactive); in the assay on OVCAR-5, > 100 µM (inactive); with HOP-62, 42.8 µM (inactive); with SR, 32.6 µM (inactive); in the assay with UACC-257, 80.2 µM (inactive); in the assay on HCT-15, 55.2 µM. In addition, the GI50 was 13.9 µM (inactive) in the assay with OVCAR-3; 38.9 µM (inactive) with MDA-MB-231; > 100 µM (inactive) with SK-MEL-28; 29.9 µM (inactive) in the assay with SF-295; 29 µM (inactive) in the assay on IGROV-1; > 100 µM (inactive) in the assay on SNB-19. Further, the GI50 in the assay with UACC-62 was 43.4 µM (inactive).

As to `O=C(CC(=O)N(C(=O)c1ccccc1)c1ccc(Cl)cc1)N/N=C\c1cc(/N=N/c2ccccc2Cl)ccc1O`, the GI50 was 39 µM (inactive) with U-251; > 100 µM (inactive) in the assay with HT-29; 38.1 µM (inactive) with 786-0; > 100 µM (inactive) with A549; 42.5 µM (inactive) in the assay with SN12C; 12.7 µM (inactive) in the assay with HL-60. For the same compound, the GI50 was > 100 µM (inactive) with OVCAR-5; 39.5 µM (inactive) with HOP-62; 17.9 µM (inactive) with SR; 75.7 µM in the assay on HCT-15; 48 µM (inactive) with OVCAR-3; 29.2 µM (inactive) in the assay on MDA-MB-231. For the same compound, the GI50 is > 100 µM (inactive) in the assay with SK-MEL-28; > 100 µM (inactive) with Malme-3M; 29.9 µM (inactive) in the assay on SF-295; > 100 µM (inactive) with IGROV-1; 18.2 µM (inactive) in the assay on SNB-19; 70.5 µM (inactive) in the assay with UACC-62.

`CC(=O)O[C@H]1C(=O)[C@@]2(C)[C@H]([C@H](OC(=O)c3ccccc3)[C@]3(O)C[C@H](OC(=O)[C@H](O)[C@@H](NC(=O)c4ccco4)c4ccccc4)C(C)=C1C3(C)C)[C@]1(OC(C)=O)CO[C@@H]1C[C@@H]2O`: the GI50 with OVCAR-4 is > 10.7 µM (inactive); with U-251, < 0.00125 µM (active); in the assay with HT-29 it was < 0.00125 µM (active); with 786-0 it was 0.00421 µM (active); in the assay on A549, < 0.00125 µM (active); with HL-60, < 0.00125 µM (active). For the same compound, the GI50 in the assay on OVCAR-5 is < 0.00125 µM (active); in the assay with HOP-62, < 0.00125 µM (active); in the assay with SR, < 0.00125 µM (active); in the assay on HCT-15, 0.249 µM; in the assay on OVCAR-3 it was < 0.00125 µM (active); with MDA-MB-231, 0.013 µM (active). Moreover, the GI50 is > 12.5 µM (inactive) with SK-MEL-28; 0.00624 µM (active) in the assay on SF-295; 0.0019 µM (active) in the assay with IGROV-1; 0.00134 µM (active) with SNB-19; < 0.00125 µM (active) in the assay on UACC-62.

The values are drawn from ChEMBL document CHEMBL1201862, “PubChem BioAssay data set” (2004).
